According to patent US20110033946A1, “DETECTION OF SHORT-CHAIN FATTY ACIDS IN BIOLOGICAL SAMPLES” (HEMAQUEST PHARMACEUTICALS, INC., priority 2009, published 2011):

Assay: Stock solution stability at approximately 4° C. (old vs new stock peak areas)
Assay type: physicochemical
Conditions: for Stock solution stability, RE % (to New) of old stock peak area: approximately 4° C.
Protocol: The following LC-MS/MS conditions were applied for the analysis of underivatized sodium 2,2-dimethylbutyrate and DMV for stock solution stability analysis (2 to 3.5 month), and system suitability associated with these analyses: The following samples were also analyzed either in conjunction with one of the precision and accuracy runs or in one of the additional validation runs. Samples from six lots of control human plasma for specificity. Samples from six lots of control human plasma fortified with internal standard for specificity. Two concentration levels of unextracted QC-samples in triplicate (solvent standards) were analyzed for the evaluation of the recovery of sodium 2,2-dimethylbutyrate and DMV in human plasma. Two levels of QC samples (Low QC and High QC in triplicate) were subjected to three freeze/thaw cycles at approximately −70° C. prior to extraction to evaluate freeze/thaw stability. Two levels of QC samples (Low QC and High QC in triplicate) were placed on the bench top for approximately 17 hours prior to extraction for the evaluation of the bench top stability. Triplicate low QC samples and triplicate high QC samples were stored for one month and three months in a freezer at approximately −70° C., and then extracted and analyzed to evaluate long term stability in human plasma. Two levels of extracted QC samples (Low QC and High QC) were re-analyzed after approximately 71 hours in the autosampler at room temperature to evaluate the extract autosampler stability. Two levels of extracted QC samples (Low QC and High QC) were re-analyzed after approximately 8 hours in the freezer at approximately −20° C. to evaluate the extract freeze stability. Three aliquots of a dilution QC sample diluted 10-fold. Triplicate dilutions of the old stock solution (stored at approximately 4° C.) and new stock solutions prepared at intervals of two weeks and one month. Statistical calculations in the report tables were calculated from unrounded concentration values taken directly from the raw data. The concentration values were rounded for display purposes. Fresh stock solutions of sodium 2,2-dimethylbutyrate were prepared at intervals of two weeks and 1, 2, 3 and 3.5 months after the initial standard preparation. Similarly, the stability intervals for DMV were two weeks and 1, 2 and 3 months. The initial (or old) stock solutions and the fresh stock solutions were diluted into the calibration standard range and analyzed. The peak areas for the fresh (new) and old standard solutions were compared. Beginning with the 2-month stability analysis, sodium 2,2-dimethylbutyrate and DMV stock solutions were analyzed underivatized. This was done since the peak areas of both sodium 2,2-dimethylbutyrate and DMV varied among replicate derivatized preparations. Analyzing the standard solutions underivatized was a simpler procedure which gave more accurate and precise results

CCCC(C)(C)C(=O)O [DMV, 2,2-Dimethylvaleric acid, reference compound]
Stock solution stability, RE % (to New) of old stock peak area (1 Month Interval): 23.9% | Stock solution stability, RE % (to New) of old stock peak area (2 Month Interval, underivatized): 14.3% | Stock solution stability, RE % (to New) of old stock peak area (2 Week Interval): 16.7% | Stock solution stability, RE % (to New) of old stock peak area (3 Month Interval, underivatized): 17.8% | Stock solution stability, RE % (to New) of old stock peak area (~2 Month Interval, repeated with the 1 month stock solution as old, underivatized): −7.2% | Time stock solutions are stable (stock solution in acetonitrile/water stored in a refrigerator at approximately 4° C.): at least 2 months
